Measurements: US6544992B1, “Urotensin-II receptor antagonists” (SmithKline Beecham Corporation, priority 1999, dated 2003)
pKi: −log10 of the molar value.

Tests used:
human and rat GPR-14 = assay: Radioligand binding, [125I] h-U-II on HEK-293 cell membranes; settings: radioligand binding assay; species of GPR-14 not given
Protocol: HEK-293 cell membranes containing stable cloned human and rat GPR-14 (20 ug/assay) were incubated with 200 pM [125I] h-U-II (200 Ci/mmol^−1 in the presence of increasing concentrations of test compounds in DMSO (0.1 nM to 10 uM), in a final incubation volume of 200 ul (20 mM Tris-HCl, 5 mM MgCl2). Incubation was done for 30 minutes at room temperature followed by filtration GF/B filters with Brandel cell harvester. ^125I labeled U-II binding was quantitated by gamma counting. Nonspecific binding was defined by ^125I U-II binding in the presence of 100 nM of unlabeled human U-II. Analysis of the data was performed by nonlinear least square fitting.

rat-isolated aorta = settings: cited from earlier work

Structure (SMILES)	pKi (human and rat GPR-14)	contractile activity (rat-isolated aorta)
O=C(NC1CCN(Cc2ccc(OCCN3CCCC3)c3ccccc23)C1)c1ccc(Cl)c(Cl)c1 (centres unmarked) [Example 13]	6.44	–
CC(C)[C@H](NC(=O)[C@@H]1CSSC[C@H](NC(=O)[C@H](CC(=O)O)NC(=O)[C@@H]2CCCN2C(=O)[C@@H](NC(=O)[C@@H](N)CCC(=O)O)[C@@H](C)O)C(=O)N[C@@H](Cc2ccccc2)C(=O)N[C@@H](Cc2c[nH]c3ccccc23)C(=O)N[C@@H](CCCCN)C(=O)N[C@@H](Cc2ccc(O)cc2)C(=O)N1)C(=O)O [Human Urotensin-II]	–	most potent contractile agonist identified to date
